In US10364216B2, “Alkenyl sulfate ester or salt thereof” (Kao Corporation, priority 2013, dated 2019):
Counter-ions that a name gives are not always drawn.

Tests used:
[1] = system: oocytes not expressing ENaC; experiment: Control: inward current in oocytes not expressing ENaC; assay type: cell-based, Xenopus; conditions: same procedure
Method: (§1) Inhibition activity of ENaC expressed in Xenopus oocytes was measured according to the method described in “The journal of biological chemistry, 284 (2): pages 792-798 (2009)”. Specifically, trans-3-octenyl sulfate was added to oocytes expressed with ENaC complex, and the activity of ENaC was analyzed electrophysiologically in accordance with the procedures described below.
Two micro-glass electrodes were inserted into the oocyte, and the membrane potential was fixed at −60 mV. At this time, Na^+ ion influx induced by ENaC complex in a constantly active state was measured with replacement to change of the current amount. Namely, in 115 mM NaCl solution (115 mM NaCl, 2.5 mM KCl, 1.8 mM CaCl2, 1 mM NaHCO3, 1 mM MgCl2 and 10 mM HEPES, pH 7.4) and under circumstances where inward current was caused by the oocytes, trans-3-octenyl sulfate dissolved in the same solution was administered.
This effect was similar to that of an existing ENaC inhibitor amiloride.

[2] = target: T1, ENaC complex (human ENaCα, β and γ) (Homo sapiens, UniProt P37088+P51168+P51170); experiment: ENaC inhibition activity, two-electrode voltage clamp in Xenopus oocytes; assay type: cell-based; conditions: 3 to 30 mM; membrane potential −60 mV; 115 mM NaCl solution; FIG. 1
T1 construct: host or cells: Xenopus oocytes injected with cRNA
T1 sequence (P37088 1-669): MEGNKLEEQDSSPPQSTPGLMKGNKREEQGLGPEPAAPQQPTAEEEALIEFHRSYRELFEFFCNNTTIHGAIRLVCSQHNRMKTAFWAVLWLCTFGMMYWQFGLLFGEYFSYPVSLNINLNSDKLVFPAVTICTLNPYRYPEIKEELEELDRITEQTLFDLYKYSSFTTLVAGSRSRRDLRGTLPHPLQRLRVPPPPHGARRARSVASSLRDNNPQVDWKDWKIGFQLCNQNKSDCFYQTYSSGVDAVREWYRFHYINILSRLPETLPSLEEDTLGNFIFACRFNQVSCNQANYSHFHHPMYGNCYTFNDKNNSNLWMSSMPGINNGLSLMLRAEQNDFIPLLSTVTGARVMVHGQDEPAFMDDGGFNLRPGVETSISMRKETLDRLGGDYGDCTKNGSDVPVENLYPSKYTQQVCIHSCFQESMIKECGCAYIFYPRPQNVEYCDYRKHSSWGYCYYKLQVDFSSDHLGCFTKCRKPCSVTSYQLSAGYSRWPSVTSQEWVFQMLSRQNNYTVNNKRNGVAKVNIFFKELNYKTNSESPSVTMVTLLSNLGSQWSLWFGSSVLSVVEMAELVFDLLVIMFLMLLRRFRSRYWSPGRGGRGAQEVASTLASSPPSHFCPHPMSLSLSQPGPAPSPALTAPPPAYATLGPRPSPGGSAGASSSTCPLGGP
T1 sequence (P51168 1-640): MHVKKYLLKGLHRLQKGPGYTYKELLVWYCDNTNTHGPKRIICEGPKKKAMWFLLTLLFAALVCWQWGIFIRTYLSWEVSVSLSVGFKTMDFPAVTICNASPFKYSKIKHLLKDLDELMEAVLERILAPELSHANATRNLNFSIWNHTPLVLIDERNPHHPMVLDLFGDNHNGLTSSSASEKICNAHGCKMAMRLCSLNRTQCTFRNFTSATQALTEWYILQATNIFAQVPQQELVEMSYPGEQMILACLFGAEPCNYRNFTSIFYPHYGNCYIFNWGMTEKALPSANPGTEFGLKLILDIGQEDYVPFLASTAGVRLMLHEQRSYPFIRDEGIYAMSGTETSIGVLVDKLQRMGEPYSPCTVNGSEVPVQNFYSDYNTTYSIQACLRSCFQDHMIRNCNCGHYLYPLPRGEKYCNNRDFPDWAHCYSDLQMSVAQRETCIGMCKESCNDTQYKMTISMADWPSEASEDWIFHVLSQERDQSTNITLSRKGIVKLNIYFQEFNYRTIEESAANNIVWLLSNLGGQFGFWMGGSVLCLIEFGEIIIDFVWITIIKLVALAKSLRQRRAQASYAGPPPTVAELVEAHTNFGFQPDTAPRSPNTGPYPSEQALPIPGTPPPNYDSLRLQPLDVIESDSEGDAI
T1 sequence (P51170 1-649): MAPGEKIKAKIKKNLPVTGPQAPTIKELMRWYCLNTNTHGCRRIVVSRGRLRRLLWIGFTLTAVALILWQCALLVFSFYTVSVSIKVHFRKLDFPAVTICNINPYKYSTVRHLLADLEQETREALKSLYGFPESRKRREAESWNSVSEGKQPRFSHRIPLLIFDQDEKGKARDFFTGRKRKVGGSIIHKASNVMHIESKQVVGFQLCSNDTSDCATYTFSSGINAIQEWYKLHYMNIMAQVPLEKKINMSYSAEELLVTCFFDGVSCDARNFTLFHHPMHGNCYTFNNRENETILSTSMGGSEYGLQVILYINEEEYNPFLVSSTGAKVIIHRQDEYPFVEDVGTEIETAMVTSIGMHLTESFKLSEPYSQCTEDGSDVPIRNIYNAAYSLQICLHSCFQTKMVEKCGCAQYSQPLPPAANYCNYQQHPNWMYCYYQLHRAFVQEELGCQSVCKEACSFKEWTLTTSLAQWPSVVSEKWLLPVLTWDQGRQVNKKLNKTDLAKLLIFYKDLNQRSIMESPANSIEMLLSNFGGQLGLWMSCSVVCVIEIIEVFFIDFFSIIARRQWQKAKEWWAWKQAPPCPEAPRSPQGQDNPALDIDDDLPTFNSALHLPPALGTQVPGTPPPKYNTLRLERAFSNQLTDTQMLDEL
Method: as §1
First, DNA sequences encoding human ENaCα, β and γ, respectively were obtained by carrying out PCR using a plasmid vector on which the same gene was cloned (manufactured by Clontech Laboratories, Inc.) as a template. The obtained PCR amplification fragment was integrated into a transcription vector pSP64 (manufactured by Promega Corporation), and pSP64/ENaCα, pSP64/ENaCβ and pSP64/ENaCγ were manufactured, respectively.
pSP64/ENaCα and pSP64/ENaCγ were digested with EcoRI, and pSP64/ENaCβ was digested with PvuII, respectively, whereby linearize the plasmid DNA. […]
The obtained aqueous solutions of cRNA encoding ENaCα, ENaCβ and ENaCγ respectively were mixed in the same quantity, and injected by 50 ng per one Xenopus oocyte. […]
Two micro-glass electrodes were inserted into the oocyte, and the membrane potential was fixed at −60 mV. At this time, Na^+ ion influx induced by ENaC complex in a constantly active state was measured with replacement to change of the current amount. […]

CCCC/C=C/CCOS(=O)(=O)O [trans-3-octenyl sulfate]
Effect on inward current in oocytes not expressing ENaC [1]: not recognized | Effect on inward current of ENaC expressing oocytes [2]: inhibited inward current of ENaC expressing oocytes concentration-dependently
